According to ChEMBL document CHEMBL6074684, “Structure-activity relationship study of novel evodiamine amino acid conjugates with potent anti-colorectal cancer efficacy” (Eur J Med Chem, 2025):
The source made the active and inactive calls. The calls are words filed in the database; no cut-off is given here.

Experiments:
[1] = biological target: T1, DNA topoisomerase 1 (Homo sapiens) (UniProt P11387); experiment: Inhibition of topoisomerase 1 (unknown origin) mediated DNA relaxation at 100 uM preincubated for 20 mins followed by pBR322 plasmid DNA addition and measured after 15 mins by red nucleic acid gel staining based agarose gel electrophoresis; details: time 35.0 min
T1 sequence (whole entry): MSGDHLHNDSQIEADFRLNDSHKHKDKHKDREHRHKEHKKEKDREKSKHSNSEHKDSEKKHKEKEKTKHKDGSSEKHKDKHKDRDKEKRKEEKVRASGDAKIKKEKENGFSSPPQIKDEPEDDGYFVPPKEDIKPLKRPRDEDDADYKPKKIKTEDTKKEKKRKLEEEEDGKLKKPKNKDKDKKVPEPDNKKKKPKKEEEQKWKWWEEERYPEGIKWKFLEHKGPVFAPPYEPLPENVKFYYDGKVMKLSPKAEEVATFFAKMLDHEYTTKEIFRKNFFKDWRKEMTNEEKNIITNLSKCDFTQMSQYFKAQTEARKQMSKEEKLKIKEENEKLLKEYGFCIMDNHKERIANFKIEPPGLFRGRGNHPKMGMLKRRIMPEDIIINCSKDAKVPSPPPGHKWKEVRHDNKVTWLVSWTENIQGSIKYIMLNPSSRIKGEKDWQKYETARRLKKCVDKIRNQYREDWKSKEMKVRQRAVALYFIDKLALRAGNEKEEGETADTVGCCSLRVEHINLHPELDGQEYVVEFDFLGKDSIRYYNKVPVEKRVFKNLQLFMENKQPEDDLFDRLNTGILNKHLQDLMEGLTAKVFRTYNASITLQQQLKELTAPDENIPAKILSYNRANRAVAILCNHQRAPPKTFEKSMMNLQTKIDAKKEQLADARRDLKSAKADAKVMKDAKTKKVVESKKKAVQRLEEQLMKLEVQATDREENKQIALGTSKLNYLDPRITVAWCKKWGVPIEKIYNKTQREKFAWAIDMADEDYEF

[2] = Stability of compound at pH 4.6 assessed as residual rate measured after 2 days; assay type: physicochemical; details: buffer, time 2 day, read-out: Stability
[3] = tested on: LoVo; experiment: Cell cycle arrest in human LoVo cells assessed as accumulation of cells at G1 phase cells at 30 nM incubated for 24 hrs by […]PI staining based flow cytometric analysis (reference value: 29.69 %); assay type: functional
[4] = tested on: Mitochondrial membrane; experiment: Induction of mitochondrial membrane potential loss in human LoVo cells assessed as TMRE positive cells at 90 nM incubated for 24 hrs by TMRE staining based flow cytometric analysis (reference value: 95.93 %); assay type: cell membranes
[5] = tested on: LoVo; experiment: Cell cycle arrest in human LoVo cells assessed as accumulation of cells at S phase cells at 10 nM incubated for 24 hrs by […]PI staining based flow cytometric analysis (reference value: 54.99 %); assay type: functional
[6] = tested on: MCF7; experiment: Antiproliferative activity against human MCF7 cells assessed as inhibition of cell growth incubated for 72 hrs by MTT assay; assay type: functional, cell-based; details: MCF7, 72 h
[7] = tested on: HT-29; experiment: Antitumor activity against human HT-29 cells xenografted in male BALB/c nude mouse assessed as tumor growth inhibition at 40 mg/kg, ip administered once daily for 14 days relative to control; assay type: functional; details: HT-29, 336 h, time 14 day, read-out: TGI
[8] = tested on: LoVo; experiment: Antiproliferative activity against human LoVo cells assessed as reduction in cell viability measured after 24 hrs; assay type: functional, cell-based; details: dose 40-200 nmol/L
[9] = Potency index, ratio of topotecan IC50 to test compound IC50 for antiproliferative activity against human LoVo cells assessed as inhibition of cell growth incubated for 72 hrs by MTT assay; assay type: functional
[10] = Stability of compound at pH 7.4 assessed as residual rate measured after 2 days; assay type: physicochemical; details: buffer, time 2 day, read-out: Stability
[11] = tested on: LoVo; experiment: Cell cycle arrest in human LoVo cells assessed as accumulation of cells at S phase cells at 90 nM incubated for 24 hrs by […]PI staining based flow cytometric analysis (reference value: 54.99 %); assay type: functional
[12] = tested on: MGC-803; experiment: Antiproliferative activity against human MGC-803 cells assessed as inhibition of cell growth incubated for 72 hrs by MTT assay; assay type: functional, cell-based; details: MGC-803, 72 h
[13] = Potency index, ratio of topotecan IC50 to test compound IC50 for antiproliferative activity against human RKO cells assessed as inhibition of cell growth incubated for 72 hrs by MTT assay; assay type: functional
[14] = tested on: LoVo; experiment: Cell cycle arrest in human LoVo cells assessed as accumulation of cells at G2 phase cells at 10 nM incubated for 24 hrs by […]PI staining based flow cytometric analysis (reference value: 14.84 %); assay type: functional
[15] = Stability of compound in rat plasma assessed as half-life; assay type: ADME, cell-free
[16] = tested on: SGC-7901; experiment: Antiproliferative activity against human SGC-7901 cells assessed as inhibition of cell growth incubated for 72 hrs by MTT assay; assay type: functional, cell-based; details: SGC-7901, 72 h
[17] = tested on: RKO; experiment: Induction of apoptosis in human RKO cells assessed as apoptosis rate at 90 nM incubated for 24 hrs by Annexin V/PI staining based flow cytometric analysis (reference value: 4.87 %); assay type: functional
[18] = tested on: RKO; experiment: Cell cycle arrest in human RKO cells assessed as accumulation of cells at S phase at 10 nM incubated for 24 hrs by […]PI staining based flow cytometric analysis (reference value: 43.36 %); assay type: functional
[19] = tested on: LoVo; experiment: Cell cycle arrest in human LoVo cells assessed as accumulation of cells at G1 phase cells at 90 nM incubated for 24 hrs by […]PI staining based flow cytometric analysis (reference value: 29.69 %); assay type: functional
[20] = tested on: SK-HEP1; experiment: Antiproliferative activity against human SK-HEP1 cells assessed as inhibition of cell growth incubated for 72 hrs by MTT assay; assay type: functional, cell-based; details: SK-HEP1, 72 h
[21] = tested on: LoVo; experiment: Induction of apoptosis in human LoVo cells assessed as apoptosis rate at 90 nM incubated for 24 hrs by Annexin V/PI staining based flow cytometric analysis (reference value: 4.71 %); assay type: functional
[22] = tested on: LoVo; experiment: Cell cycle arrest in human LoVo cells assessed as accumulation of cells at S phase cells at 30 nM incubated for 24 hrs by […]PI staining based flow cytometric analysis (reference value: 54.99 %); assay type: functional
[23] = tested on: LoVo; experiment: Induction of morphological changes in human LoVo cells assessed as appearance of contracted nucleus incubated for 24 hrs by Giemsa staining based microscopic analysis; assay type: functional, cell-based; details: dose 10-90 nM
[24] = tested on: RKO; experiment: Cell cycle arrest in human RKO cells assessed as accumulation of cells at G2 phase at 10 nM incubated for 24 hrs by […]PI staining based flow cytometric analysis (reference value: 20.07 %); assay type: functional
[25] = tested on: LoVo; experiment: Cell cycle arrest in human LoVo cells assessed as accumulation of cells at G2 phase cells at 90 nM incubated for 24 hrs by […]PI staining based flow cytometric analysis (reference value: 14.84 %); assay type: functional
[26] = tested on: HCT-116; experiment: Antiproliferative activity against human […] cells assessed as inhibition of cell growth incubated for 72 hrs by MTT assay; assay type: functional, cell-based; details: HCT-116, 72 h
[27] = tested on: RKO; experiment: Cell cycle arrest in human RKO cells assessed as accumulation of cells at G2 phase at 90 nM incubated for 24 hrs by […]PI staining based flow cytometric analysis (reference value: 20.07 %); assay type: functional

SMILES: CC(C)(C)OC(=O)N[C@@H](CCC(N)=O)C(=O)Oc1ccc2[nH]c3c(c2c1)CCN1C(=O)c2cc(F)ccc2N(c2cccc(F)c2)[C@H]31
- inhibition [1]: Active
- remaining at 48 h [2]: 67.8%
- Activity [3]: 10.27%
- Activity [4]: 86.7%
- Activity [5]: 45.15%
- IC50 [6]: 600 nM
- inhibition in vivo at 40 mg/kg [7]: 70.1%
- Activity [8]: Dose-dependent-effect
- Ratio IC50 [9]: 3.4
- remaining at 48 h [10]: 40.2%
- Activity [11]: 53.62%
- IC50 [12]: 120 nM
- Ratio IC50 [13]: 3.4
- Activity [14]: 27.11%
- half-life [15]: 36 min
- IC50 [16]: 490 nM
- Activity [17]: 12.25%
- Activity [18]: 42.5%
- Activity [19]: 25.84%
- IC50 [20]: 870 nM
- Activity [21]: 36.4%
- Activity [22]: 26.97%
- Activity [23]: Dose-dependent-effect
- Activity [24]: 27.14%
- Activity [25]: 19.93%
- IC50 [26]: 260 nM
- Activity [27]: 21.72%
